Patent US8003595B2, “Amino acid sequences facilitating penetration of a substance of interest into cells and/or cell nuclei” (Cellectis, priority 2000, dated 2011)
pKd: −log10 of the molar value. Like-named read-outs stand apart in the source and are kept apart here. Each block holds one substance with its values, some of them ahead of it. Where no end group is shown, it is not given here. [ ]: non-standard residue; d: D form.

Legend:
3T3 = experiment: Internalization of covalent peptide-peroxidase conjugates; assay type: cell-based, mouse; details: 2 hours
Experimental: (§1) To evaluate more directly the penetration of the peptides, avoiding the avidin-peroxidase bias, some of the peptides in sequences SEQ ID NO: 25 to 48 were conjugated covalently with cysteine in the C-terminal position of the peptide to peroxidase. The peptides were coupled with peroxidase in the following way:
(§2) One mg of peroxidase activated with maleimide (Sigma) in 100 μl of sodium phosphate buffer, NaCl 0.15 M, EDTA 5 mM, had 1 mg of peptide added to it. After 2 hours at laboratory temperature, β-mercaptoethanol is added to a final concentration of 1.5 mM for 15 minutes. The uncoupled peptide is eliminated by centrifugation on ultrafiltration membranes (cut-off threshold=30,000 Daltons, Sartorius), followed by three washings in sodium phosphate buffer 0.1 M, pH 7.4 containing 0.15 M NaCl.
(§3) It appears that the higher the concentration of peptide-peroxidase conjugate in the culture medium, the more the quantity internalized increases. To compare the penetration of the conjugates by cell type, the cells from different lines were incubated with 0.2 μg/ml of peptide-peroxidase conjugate for 2 hours, and the quantity of peroxidase dosed in the lysates. Table 9 and Table 9B below give the results expressed in pg/10^3 cells. The quantity of each peptide internalized in the different lines generally varies only from single to double.

[1] = ELISA fixation of biotinylated peptides on sensitized plates; assay type: binding; details: read-out: avidity (Kd), quantity of peptides necessary to obtain 50% fixation, Chondroitin A; Table 5
[2] = as above; assay type: binding; details: read-out: avidity (Kd), quantity of peptides necessary to obtain 50% fixation, Chondroitin C; Table 5
HeLa = experiment: Internalization of covalent peptide-peroxidase conjugates; assay type: cell-based, human; details: 2 hours
Experimental: as §1, §2, §3

H1299 cells [3] = experiment: as above; assay type: cell-based, human; details: for Internalization of Peptide-peroxidase: H1299, 0.2 μg/ml conjugate; for Internalization of Peptide-peroxidase / quantity of peptide internalized: 2 hours
Experimental: as §1, §2
The H1299 cells are incubated for 2 hours with the conjugates at increasing concentrations of peptide-peroxidase in the culture medium, then washed with PBS. The cells are lysed and the quantity of peptide internalized is evaluated by the dosage of peroxidase in the lysate of the cells with reference to a curve established with peptide-peroxidase.
The quantity of peptide internalized (pg/10^3 cells), depending on the concentrations of conjugates in the culture medium, is shown in Table 8 below.
as §3

[4] = ELISA fixation of biotinylated peptides on sensitized plates; assay type: binding; details: read-out: avidity (Kd), quantity of peptides necessary to obtain 50% fixation, Chondroitin B; Table 5
[5] = as above; assay type: binding; details: read-out: avidity (Kd), quantity of peptides necessary to obtain 50% fixation, Heparin, Table 5
Experimental: The capacity of peptides SEQ ID NO: 1 to 21 to attach themselves to DNA and heparin is evaluated on ELISA plates sensitized with DNA or heparin. Dilutions of biotinylated peptides are deposited on the plates and their fixation is shown using streptavidin conjugated with peroxidase. […] The avidity of each of the peptides for DNA or heparin is evaluated by the quantity (×10^−6 M) of peptides necessary to obtain 50% fixation.

H1299 cells [6] = experiment: Internalization of biotinylated peptide/S-PO complexes; assay type: cell-based, human
Experimental: A biotinylated/S-PO peptide or biotinylated/A-PO complex (A-PO for avidin-peroxidase) is prepared extemporaneously in two ways:
1) either in a peptide: S-PO or A-PO molar ratio of 4:1 (for example, 1.4 μg of peptide with a molecular weight of 3500 to 10 μg of S-PO; the weight of S-PO used varies depending on the peptides since their molecular weights are different).
2) or in a peptide: S-PO or A-PO molar ratio of 25:1 (for example 1.7 μg of peptide with a molecular weight of 3500 to 1 μg of S-PO).
The complexes are prepared by incubating the biotinylated peptide with S-PO or A-PO in PBS in a volume of 5 to 10 μl for 15 minutes at laboratory temperature. They are then diluted in 1 ml of complete culture medium, filtered on a 0.2 micron membrane and incubated with the cells for 4 hours. The cells are then washed three times with PBS.
To study the penetration of the complexes under a microscope, the cells are fixed as before for 15 minutes in ethanol at −20° C., they are washed with PBS, and the activity of the internalized peroxidase is shown by diaminobenzidine in the presence of H2O2. To measure the quantity of peptide/S-PO or A-PO complexes internalized, the cells are trypsinized, transferred into microtubes and counted. They are washed twice by centrifugation, then the residue is suspended in 200 μl of lysis buffer (Tris buffer, 0.1 M, pH8, 0.5% Nonidet). After 15 minutes, the peroxidase contained in the lysis buffer is dosed onto 96-well plates with ortho-dianisidine and H2O2 by comparison with a standard curve for S-PO. The reading is taken at 450 nm. The quantity contained in the different samples is expressed in picograms (pg) per 10^4 cells.
Table 7 below reports the results of evaluating the influence of SEQ ID NO: 1 on the penetration of peptides coupled to SEQ ID NO: 1 into H1299 cells, where
Concentration a: 25 peptides to one molecule of S-PO (1 μg),
Concentration b: 4 peptides to one molecule of S-PO (10 μg).

cells = experiment: Penetration of biotinylated peptides inside cells (microscopy, S-PO coloration); assay type: cell-based; details: biotinylated peptides 50 to 6 μg/ml, 1-18 hours, revealed with S-PO
Experimental: The cells are cultivated in the presence of the different peptides carrying, on the N-terminal side, biotin in decreasing concentrations (50 to 6 μg/ml) in the culture medium for variable times (1-18 hours).
At the end of the culture, the cells are washed three times with PBS (0.15 M NaCl buffered with 0.01 M potassium phosphate buffer pH 7.4) then fixed 15 minutes in ethanol at −20° C. The penetration of the peptide is evaluated after incubation for 30 minutes with streptavidin conjugated with peroxidase (abbreviated S-PO for streptavidin-peroxidase). Then, the S-PO is eliminated, and the cells are washed. […] With the other peptides, positive colorations, but of variable intensity, were noted.

[7] = Conc. a: 25 peptides to one molecule of S-PO (1 μg)
[8] = Conc. b: 4 peptides to one molecule of S-PO (10 μg)
[9] = peptide: S-PO complexes of 4:1, peptide concentration of 1 μg

Substance: SEQ ID NO: 6: Peptide containing part of CDR2 and CDR3 regions of monoclonal murine antibody F4.1 (TYYSDTVKGRFTRQKYNKRA; Mus musculus x Rattus norvegicus)
S-PO internalized (H1299 cells [6]; [7]): 1 pg/10^4 cells | S-PO internalized (H1299 cells [6]; [8]): 130 pg/10^4 cells | intracellular cytochemical coloration (cells): Faint coloration

Substance: SEQ ID NO: 7: Peptide containing SEQ ID NO: 1 and SEQ ID NO: 6 (VKRGLKLTYYSDTVKGRFTRQYNKRA; Homo sapien - Mus musculus - Rattus norvegicus)
S-PO internalized (H1299 cells [6]; [7]): 240 pg/10^4 cells | S-PO internalized (H1299 cells [6]; [8]): 220 pg/10^4 cells | intracellular cytochemical coloration (cells): intense coloration

Substance: SEQ ID NO: 8: Peptide corresponding to the hypervariable CD3 region of human anti-DNA monoclonal antibody RTT79 (VRRSGRVVVPAAPRNRD; listed as Homo sapiens)
S-PO internalized (H1299 cells [6]; [7]): 50 pg/10^4 cells | S-PO internalized (H1299 cells [6]; [8]): 1310 pg/10^4 cells | intracellular cytochemical coloration (cells): Faint coloration

Substance: SEQ ID NO: 9: Peptide containing SEQ ID NO: 1 and SEQ ID NO: 8 (VKRGLKLVRRSGRVVVPAAPRNRD; listed as Homo sapiens)
S-PO internalized (H1299 cells [6]; [7]): 340 pg/10^4 cells | S-PO internalized (H1299 cells [6]; [8]): 8280 pg/10^4 cells | intracellular cytochemical coloration (cells): intense coloration

Substance: SEQ ID NO: 17: Peptide reacting with heparin derived from human lipoprotein E (LRKRLLRD; listed as Homo sapiens)
S-PO internalized (H1299 cells [6]; [9]): 3 pg/10^4 cells | intracellular cytochemical coloration (cells): do not give any positive intracellular cytochemical coloration

Substance: SEQ ID NO: 18: Peptide reacting with heparin derived from the amino acid sequence of agrine (KSRK; listed as Homo sapiens)
S-PO internalized (H1299 cells [6]; [9]): 3 pg/10^4 cells | intracellular cytochemical coloration (cells): do not give any positive intracellular cytochemical coloration

Substance: SEQ ID NO: 19: Dimer of SEQ ID NO: 18 (KSRKKSRK; not fully specified; listed as Homo sapiens)
S-PO internalized (H1299 cells [6]; [9]): 167 pg/10^4 cells | intracellular cytochemical coloration (cells): Faint coloration

Substance: SEQ ID NO: 27: SEQ ID NO: 26 in which the amino acids are in configuration D ([dS][dE][dR][dK][dK][dR][dR][dR][dE][dS][dR][dK][dK][dR][dR][dR][dE][dS]; listed as Homo sapiens)
Internalization of Peptide-peroxidase (3T3; Table 9B, 0.2 μg/ml conjugate): 63.7 pg/10^3 cells | Internalization of Peptide-peroxidase (HeLa; Table 9B, 0.2 μg/ml conjugate): 4.1 pg/10^3 cells | Internalization of Peptide-peroxidase (H1299 cells [3]; Table 9B): 59.1 pg/10^3 cells

Substance: VKRGLKL (listed as Homo sapiens) [SEQ ID NO: 1, Peptide reacting with heparin from human lipoprotein B]
S-PO internalized (H1299 cells [6]; [9]): 3 pg/10^4 cells | intracellular cytochemical coloration (cells): do not give any positive intracellular cytochemical coloration

Second part, led by results:

Internalization of Peptide-peroxidase (3T3; Table 9, 0.2 μg/ml conjugate): 20.3 pg/10^3 cells | Internalization of Peptide-peroxidase (HeLa; Table 9, 0.2 μg/ml conjugate): 4.4 pg/10^3 cells
Substance: AKTGKRKRSG [SEQ ID NO: 36]
pKd [1]: 6.54 | pKd [2]: 6.69 | Internalization of Peptide-peroxidase (H1299 cells [3]; Table 9): 10.6 pg/10^3 cells | pKd [4]: 6.52

Internalization of Peptide-peroxidase (3T3; Table 9, 0.2 μg/ml conjugate): 7.6 pg/10^3 cells | Internalization of Peptide-peroxidase (HeLa; Table 9, 0.2 μg/ml conjugate): 2.1 pg/10^3 cells
Substance: GLKKNGSCKRGPR [SEQ ID NO: 33]
pKd [1]: 6.65 | pKd [2]: 6.96 | Internalization of Peptide-peroxidase (H1299 cells [3]; Table 9): 3.6 pg/10^3 cells | pKd ([5]; listed as HBP8): 6.77 | pKd [4]: 6.59

Internalization of Peptide-peroxidase (3T3; Table 9, 0.2 μg/ml conjugate): 5.7 pg/10^3 cells | Internalization of Peptide-peroxidase (HeLa; Table 9, 0.2 μg/ml conjugate): 2.5 pg/10^3 cells
Substance: QGKSKREKKDRVF [SEQ ID NO: 37]
pKd [1]: 6.75 | pKd [2]: 7.03 | Internalization of Peptide-peroxidase (H1299 cells [3]; Table 9): 4.3 pg/10^3 cells | pKd [4]: 6.76

Internalization of Peptide-peroxidase (3T3; Table 9B, 0.2 μg/ml conjugate): 75.9 pg/10^3 cells | Internalization of Peptide-peroxidase (HeLa; Table 9B, 0.2 μg/ml conjugate): 8.7 pg/10^3 cells
Substance: SEQ ID NO: 31: homolog of SEQ ID NO: 30 with amino acid sequence in the reverse position (b233 says SEQ ID NO: 12) (PDRKKGLKGKKKRKKG; (1)..(16) The amino acids are in front-back position; listed as Homo sapiens)
Internalization of Peptide-peroxidase (H1299 cells [3]; Table 9B): 70.6 pg/10^3 cells

Internalization of Peptide-peroxidase (3T3; Table 9B, 0.2 μg/ml conjugate): 50 pg/10^3 cells | Internalization of Peptide-peroxidase (HeLa; Table 9B, 0.2 μg/ml conjugate): 7.7 pg/10^3 cells
Substance: SEQ ID NO: 32: SEQ ID NO: 30 in which the amino acids are in configuration D (G[dK][dR][dK][dK][dK]G[dK][dL]G[dK][dK][dR][dD]; listed as Homo sapiens)
Internalization of Peptide-peroxidase (H1299 cells [3]; Table 9B): 56.7 pg/10^3 cells

Internalization of Peptide-peroxidase (3T3; Table 9, 0.2 μg/ml conjugate): 35 pg/10^3 cells | Internalization of Peptide-peroxidase (HeLa; Table 9, 0.2 μg/ml conjugate): 4.7 pg/10^3 cells
Substance: VKRGLKLRHVRPRVTRMDV (listed as Homo sapiens) [SEQ ID NO: 10]
intracellular cytochemical coloration (cells): intense coloration | Internalization of Peptide-peroxidase (H1299 cells [3]; Table 9): 10 pg/10^3 cells

Internalization of Peptide-peroxidase (3T3; Table 9, 0.2 μg/ml conjugate): 9 pg/10^3 cells | Internalization of Peptide-peroxidase (HeLa; Table 9, 0.2 μg/ml conjugate): 3.4 pg/10^3 cells
Substance: YRSRKYSSWYYALKR [SEQ ID NO: 34]
pKd [1]: 7.33 | pKd [2]: 7.60 | percentage of quantity of peroxidase internalized compared to quantity deposited (H1299 cells [3]; 0.01 μg/ml): (0.01) % | percentage of quantity of peroxidase internalized compared to quantity deposited (H1299 cells [3]; 0.1 μg/ml): (1.4) % | percentage of quantity of peroxidase internalized compared to quantity deposited (H1299 cells [3]; 0.5 μg/ml): (8.14) % | percentage of quantity of peroxidase internalized compared to quantity deposited (H1299 cells [3]; 1 μg/ml): (10.9) % | Internalization of Peptide-peroxidase (H1299 cells [3]; Table 9): 3.8 pg/10^3 cells | quantity of peptide internalized (H1299 cells [3]; peptide-peroxidase 0.01 μg/ml): 0.002 pg/10^3 cells | quantity of peptide internalized (H1299 cells [3]; peptide-peroxidase 0.1 μg/ml): 1.4 pg/10^3 cells | quantity of peptide internalized (H1299 cells [3]; peptide-peroxidase 0.5 μg/ml): 40.7 pg/10^3 cells | quantity of peptide internalized (H1299 cells [3]; peptide-peroxidase 1 μg/ml): 109 pg/10^3 cells | pKd [5]: 7.35 | pKd [4]: 7.33
